Legend:
eIF2B = molecular target: T1, eIF2B (Mus musculus, UniProt Q61749+Q99LD9); experiment: GEF assay, Bodipy-FL-GDP release from eIF2, fluorescence; assay type: biochemical; settings: activator; MEF lysate 0.1 mg/mL; 25 nM Bodipy-FL-GDP-loaded eIF2; 3 nM phospho-eIF2; 0.1 mM GDP; 25°C; homozygous R191H MEF lysate
T1 construct: gene Eif2b2; native endogenous complex in lysate of mouse embryonic fibroblasts; decamer of five subunits; with Translation initiation factor eIF2B subunit alpha; Translation initiation factor eIF2B subunit gamma; Translation initiation factor eIF2B subunit epsilon
T1 sequence (Q99LD9 whole entry): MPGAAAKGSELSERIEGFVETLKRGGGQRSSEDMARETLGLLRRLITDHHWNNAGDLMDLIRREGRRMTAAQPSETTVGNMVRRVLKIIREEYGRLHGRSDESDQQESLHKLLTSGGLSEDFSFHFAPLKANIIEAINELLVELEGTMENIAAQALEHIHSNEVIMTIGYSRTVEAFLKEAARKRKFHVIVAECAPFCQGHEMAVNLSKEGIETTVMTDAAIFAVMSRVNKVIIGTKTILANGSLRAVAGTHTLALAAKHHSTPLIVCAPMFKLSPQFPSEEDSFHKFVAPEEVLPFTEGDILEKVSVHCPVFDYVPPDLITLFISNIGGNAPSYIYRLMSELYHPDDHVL
T1 sequence (Q61749 2-524): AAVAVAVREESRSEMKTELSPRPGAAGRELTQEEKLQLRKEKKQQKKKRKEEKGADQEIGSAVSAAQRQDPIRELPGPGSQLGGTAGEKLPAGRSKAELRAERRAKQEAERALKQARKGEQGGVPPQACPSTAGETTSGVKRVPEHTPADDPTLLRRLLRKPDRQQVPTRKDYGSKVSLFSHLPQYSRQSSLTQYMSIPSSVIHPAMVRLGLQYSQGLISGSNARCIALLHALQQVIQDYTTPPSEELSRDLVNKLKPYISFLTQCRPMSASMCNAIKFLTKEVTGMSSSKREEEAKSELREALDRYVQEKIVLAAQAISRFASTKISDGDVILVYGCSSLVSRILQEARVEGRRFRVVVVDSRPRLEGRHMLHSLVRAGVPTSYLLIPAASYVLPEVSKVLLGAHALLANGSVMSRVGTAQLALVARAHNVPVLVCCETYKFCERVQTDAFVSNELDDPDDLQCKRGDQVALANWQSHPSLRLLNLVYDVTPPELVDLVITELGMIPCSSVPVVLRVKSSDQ
T1 sequence (Q99LC8 whole entry partner): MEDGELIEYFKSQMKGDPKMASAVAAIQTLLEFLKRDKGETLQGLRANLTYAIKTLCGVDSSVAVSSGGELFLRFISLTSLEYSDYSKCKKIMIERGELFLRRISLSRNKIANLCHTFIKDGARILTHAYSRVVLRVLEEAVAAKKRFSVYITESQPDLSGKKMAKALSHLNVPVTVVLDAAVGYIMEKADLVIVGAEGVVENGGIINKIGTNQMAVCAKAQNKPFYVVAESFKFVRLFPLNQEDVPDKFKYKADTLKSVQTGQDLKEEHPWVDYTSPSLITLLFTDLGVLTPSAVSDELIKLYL
T1 sequence (B1AUN2 1-452 partner): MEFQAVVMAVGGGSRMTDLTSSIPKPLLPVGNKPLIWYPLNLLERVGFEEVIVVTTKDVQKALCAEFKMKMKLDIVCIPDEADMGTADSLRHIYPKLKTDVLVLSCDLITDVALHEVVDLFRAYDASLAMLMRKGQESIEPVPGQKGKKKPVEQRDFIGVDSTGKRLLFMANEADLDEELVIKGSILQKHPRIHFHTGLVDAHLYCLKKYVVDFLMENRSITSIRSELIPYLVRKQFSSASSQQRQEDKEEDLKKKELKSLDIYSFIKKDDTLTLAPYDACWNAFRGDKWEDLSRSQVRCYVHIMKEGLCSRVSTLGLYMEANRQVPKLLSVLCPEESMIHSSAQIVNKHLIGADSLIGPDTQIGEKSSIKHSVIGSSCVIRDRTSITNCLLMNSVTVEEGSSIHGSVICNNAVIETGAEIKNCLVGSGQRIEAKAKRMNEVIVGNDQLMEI
T1 sequence (Q8CHW4 whole entry R191H partner): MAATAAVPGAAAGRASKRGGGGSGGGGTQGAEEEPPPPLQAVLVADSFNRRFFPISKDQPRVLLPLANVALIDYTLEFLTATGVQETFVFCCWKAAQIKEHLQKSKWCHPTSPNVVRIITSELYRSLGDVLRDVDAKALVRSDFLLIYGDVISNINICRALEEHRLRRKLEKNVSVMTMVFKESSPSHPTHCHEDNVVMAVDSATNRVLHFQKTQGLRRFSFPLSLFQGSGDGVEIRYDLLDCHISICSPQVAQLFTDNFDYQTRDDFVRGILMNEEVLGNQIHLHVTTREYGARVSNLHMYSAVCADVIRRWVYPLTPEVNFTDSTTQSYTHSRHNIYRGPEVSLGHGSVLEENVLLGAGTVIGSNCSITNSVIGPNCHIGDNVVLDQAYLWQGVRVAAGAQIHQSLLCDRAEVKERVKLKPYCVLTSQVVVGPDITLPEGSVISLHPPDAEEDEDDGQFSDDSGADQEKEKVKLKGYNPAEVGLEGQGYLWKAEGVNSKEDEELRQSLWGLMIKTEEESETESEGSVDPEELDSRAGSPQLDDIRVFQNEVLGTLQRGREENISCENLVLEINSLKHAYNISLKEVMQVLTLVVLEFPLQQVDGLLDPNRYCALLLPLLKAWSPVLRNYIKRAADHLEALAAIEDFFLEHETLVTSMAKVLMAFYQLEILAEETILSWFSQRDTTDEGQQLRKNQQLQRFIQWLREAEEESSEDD

CGRP (h) = molecular target: T2, CGRP (h) (Homo sapiens, UniProt Q16602); experiment: biochemical; design: CEREP panel radioligand binding displacement, % inhibition of control specific binding by 10 uM 2BAct; settings: Type=Agonist radioligand; read-out: % inhibition of Control specific binding
T2 construct: gene CALCRL
Experimental: (§1) Supplementary file elife-42940-supp1.xlsx: Supplementary file 1. (A) Binding of 2BAct at 10 μM to the CEREP panel of receptors/enzymes/ion channels. Compound binding was calculated as a % inhibition of the binding of a radioactively labeled ligand specific for each target. Results showing inhibition or stimulation higher than 50% are considered to represent significant effects of the test compound. (B) Pharmacokinetic data from 2BAct dosing in mice. (C) GO Biological Processes identified by enrichment analysis of RNA-seq data. (D) List of genes used for enrichment analysis of scRNA-seq data.

5-HT3 (h) = molecular target: T3, 5-HT3 (h) (Homo sapiens, UniProt P46098); experiment: biochemical; design: CEREP panel radioligand binding displacement, % inhibition of control specific binding by 10 uM 2BAct; settings: Type=Antagonist radioligand; read-out: % inhibition of Control specific binding
T3 construct: gene HTR3A
T3 sequence (P46098 whole entry): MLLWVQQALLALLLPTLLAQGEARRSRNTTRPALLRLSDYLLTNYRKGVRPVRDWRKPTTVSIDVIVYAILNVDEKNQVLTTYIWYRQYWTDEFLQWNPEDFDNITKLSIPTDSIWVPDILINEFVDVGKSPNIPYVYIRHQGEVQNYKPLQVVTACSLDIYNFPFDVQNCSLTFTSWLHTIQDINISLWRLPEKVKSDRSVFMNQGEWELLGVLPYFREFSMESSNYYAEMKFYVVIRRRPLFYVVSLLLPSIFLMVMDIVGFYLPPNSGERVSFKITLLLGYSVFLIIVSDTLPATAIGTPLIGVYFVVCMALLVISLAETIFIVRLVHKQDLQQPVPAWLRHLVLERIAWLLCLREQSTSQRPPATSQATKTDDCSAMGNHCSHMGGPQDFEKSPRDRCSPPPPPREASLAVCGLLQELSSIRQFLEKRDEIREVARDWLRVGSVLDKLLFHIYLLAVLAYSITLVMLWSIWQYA
Experimental: as §1

[1] = molecular target: T4, norepinephrine transporter (h) (Homo sapiens, UniProt P23975); experiment: biochemical; design: CEREP panel radioligand binding displacement, % inhibition of control specific binding by 10 uM 2BAct; settings: Type=Antagonist radioligand; read-out: % inhibition of Control specific binding
T4 construct: gene SLC6A2
Experimental: as §1

5-HT7 (h) = molecular target: T5, 5-HT7 (h) (Homo sapiens, UniProt P34969); experiment: biochemical; design: CEREP panel radioligand binding displacement, % inhibition of control specific binding by 10 uM 2BAct; settings: Type=Agonist radioligand; read-out: % inhibition of Control specific binding
T5 construct: gene HTR7
T5 sequence (P34969 whole entry): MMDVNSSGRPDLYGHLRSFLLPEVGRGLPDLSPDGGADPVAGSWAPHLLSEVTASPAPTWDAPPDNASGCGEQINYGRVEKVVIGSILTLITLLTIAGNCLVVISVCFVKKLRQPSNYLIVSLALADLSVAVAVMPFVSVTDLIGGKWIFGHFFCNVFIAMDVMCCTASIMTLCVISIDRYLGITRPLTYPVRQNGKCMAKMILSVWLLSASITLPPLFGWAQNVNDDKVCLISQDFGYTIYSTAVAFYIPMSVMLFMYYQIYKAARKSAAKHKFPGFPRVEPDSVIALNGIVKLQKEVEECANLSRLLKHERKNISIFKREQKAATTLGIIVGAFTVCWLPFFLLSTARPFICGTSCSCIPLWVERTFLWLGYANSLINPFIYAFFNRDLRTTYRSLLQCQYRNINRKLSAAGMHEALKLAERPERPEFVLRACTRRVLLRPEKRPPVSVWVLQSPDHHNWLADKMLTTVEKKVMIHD
Experimental: as §1

5-HT1B = molecular target: T6, 5-HT1B (Rattus norvegicus, UniProt P28564); experiment: biochemical; design: CEREP panel radioligand binding displacement, % inhibition of control specific binding by 10 uM 2BAct; settings: Type=Antagonist radioligand; read-out: % inhibition of Control specific binding
T6 construct: gene Htr1b
T6 sequence (P28564 whole entry): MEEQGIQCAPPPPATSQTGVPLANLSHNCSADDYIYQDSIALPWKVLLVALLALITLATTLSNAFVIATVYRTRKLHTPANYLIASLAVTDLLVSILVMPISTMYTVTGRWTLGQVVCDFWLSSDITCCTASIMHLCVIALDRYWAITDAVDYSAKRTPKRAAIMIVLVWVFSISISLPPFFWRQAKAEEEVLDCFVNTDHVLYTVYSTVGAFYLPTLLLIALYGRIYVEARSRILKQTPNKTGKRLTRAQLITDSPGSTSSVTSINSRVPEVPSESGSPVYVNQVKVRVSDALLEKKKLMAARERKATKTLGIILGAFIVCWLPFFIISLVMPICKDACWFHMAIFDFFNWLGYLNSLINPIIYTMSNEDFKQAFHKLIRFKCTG
Experimental: as §1

a1B (h) = molecular target: T7, a1B (h) (Homo sapiens, UniProt P35368); experiment: biochemical; design: CEREP panel radioligand binding displacement, % inhibition of control specific binding by 10 uM 2BAct; settings: Type=Antagonist radioligand; read-out: % inhibition of Control specific binding
T7 construct: gene ADRA1B
Experimental: as §1

m (MOP) (h) = molecular target: T8, m (MOP) (h) (Homo sapiens, UniProt P35372); experiment: biochemical; design: CEREP panel radioligand binding displacement, % inhibition of control specific binding by 10 uM 2BAct; settings: Type=Agonist radioligand; read-out: % inhibition of Control specific binding
T8 construct: gene OPRM1
Experimental: as §1

A3 (h) = molecular target: T9, A3 (h) (Homo sapiens, UniProt P0DMS8); experiment: biochemical; design: CEREP panel radioligand binding displacement, % inhibition of control specific binding by 10 uM 2BAct; settings: Type=Agonist radioligand; read-out: % inhibition of Control specific binding
T9 construct: gene ADORA3
Experimental: as §1

ET-A (h) = molecular target: T10, ET-A (h) (Homo sapiens, UniProt P25101); experiment: biochemical; design: CEREP panel radioligand binding displacement, % inhibition of control specific binding by 10 uM 2BAct; settings: Type=Agonist radioligand; read-out: % inhibition of Control specific binding
T10 construct: gene EDNRA
T10 sequence (P25101 whole entry): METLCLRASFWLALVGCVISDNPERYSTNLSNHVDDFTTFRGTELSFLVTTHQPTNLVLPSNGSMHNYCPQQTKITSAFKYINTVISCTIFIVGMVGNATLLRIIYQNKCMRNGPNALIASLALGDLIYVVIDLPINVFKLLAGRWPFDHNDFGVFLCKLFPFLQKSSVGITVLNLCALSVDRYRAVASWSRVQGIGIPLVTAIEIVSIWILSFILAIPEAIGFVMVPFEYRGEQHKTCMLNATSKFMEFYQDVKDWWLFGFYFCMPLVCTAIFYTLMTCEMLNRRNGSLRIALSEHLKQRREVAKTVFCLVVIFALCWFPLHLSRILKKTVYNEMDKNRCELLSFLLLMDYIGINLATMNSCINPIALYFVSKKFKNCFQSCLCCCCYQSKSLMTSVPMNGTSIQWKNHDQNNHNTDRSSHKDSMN
Experimental: as §1

5-HT transporter (h) = molecular target: T11, 5-HT transporter (h) (Homo sapiens, UniProt P31645); experiment: biochemical; design: CEREP panel radioligand binding displacement, % inhibition of control specific binding by 10 uM 2BAct; settings: Type=Antagonist radioligand; read-out: % inhibition of Control specific binding
T11 construct: gene SLC6A4
Experimental: as §1

M4 (h) = molecular target: T12, M4 (h) (Homo sapiens, UniProt P08173); experiment: biochemical; design: CEREP panel radioligand binding displacement, % inhibition of control specific binding by 10 uM 2BAct; settings: Type=Antagonist radioligand; read-out: % inhibition of Control specific binding
T12 construct: gene CHRM4
Experimental: as §1

M5 (h) = molecular target: T13, M5 (h) (Homo sapiens, UniProt P08912); experiment: biochemical; design: CEREP panel radioligand binding displacement, % inhibition of control specific binding by 10 uM 2BAct; settings: Type=Antagonist radioligand; read-out: % inhibition of Control specific binding
T13 construct: gene CHRM5
Experimental: as §1

Y1 (h) = molecular target: T14, Y1 (h) (Homo sapiens, UniProt P25929); experiment: biochemical; design: CEREP panel radioligand binding displacement, % inhibition of control specific binding by 10 uM 2BAct; settings: Type=Agonist radioligand; read-out: % inhibition of Control specific binding
T14 construct: gene NPY1R
T14 sequence (P25929 whole entry): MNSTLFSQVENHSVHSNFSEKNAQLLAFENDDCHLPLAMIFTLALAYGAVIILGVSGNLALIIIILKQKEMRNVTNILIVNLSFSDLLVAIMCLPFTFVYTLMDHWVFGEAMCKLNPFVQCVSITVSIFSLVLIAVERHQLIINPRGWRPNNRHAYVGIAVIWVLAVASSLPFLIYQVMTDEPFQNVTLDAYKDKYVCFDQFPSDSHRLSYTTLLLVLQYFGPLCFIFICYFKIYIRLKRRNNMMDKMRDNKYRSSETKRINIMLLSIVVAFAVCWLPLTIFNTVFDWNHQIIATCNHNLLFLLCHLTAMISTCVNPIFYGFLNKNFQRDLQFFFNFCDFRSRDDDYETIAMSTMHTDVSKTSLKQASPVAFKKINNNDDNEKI
Experimental: as §1

CCK1(CCKA) (h) = molecular target: T15, CCK1(CCKA) (h) (Homo sapiens, UniProt P32238); experiment: biochemical; design: CEREP panel radioligand binding displacement, % inhibition of control specific binding by 10 uM 2BAct; settings: Type=Agonist radioligand; read-out: % inhibition of Control specific binding
T15 construct: gene CCKAR
Experimental: as §1

5-HT2A (h) = molecular target: T16, 5-HT2A (h) (Homo sapiens, UniProt P28223); experiment: biochemical; design: CEREP panel radioligand binding displacement, % inhibition of control specific binding by 10 uM 2BAct; settings: Type=Antagonist radioligand; read-out: % inhibition of Control specific binding
T16 construct: gene HTR2A
Experimental: as §1

D2S (h) = molecular target: T17, D2S (h) (Homo sapiens, UniProt P14416); experiment: biochemical; design: CEREP panel radioligand binding displacement, % inhibition of control specific binding by 10 uM 2BAct; settings: Type=Antagonist radioligand; read-out: % inhibition of Control specific binding
T17 construct: gene DRD2; short isoform (D2S)
T17 sequence (P14416 whole entry, canonical isoform): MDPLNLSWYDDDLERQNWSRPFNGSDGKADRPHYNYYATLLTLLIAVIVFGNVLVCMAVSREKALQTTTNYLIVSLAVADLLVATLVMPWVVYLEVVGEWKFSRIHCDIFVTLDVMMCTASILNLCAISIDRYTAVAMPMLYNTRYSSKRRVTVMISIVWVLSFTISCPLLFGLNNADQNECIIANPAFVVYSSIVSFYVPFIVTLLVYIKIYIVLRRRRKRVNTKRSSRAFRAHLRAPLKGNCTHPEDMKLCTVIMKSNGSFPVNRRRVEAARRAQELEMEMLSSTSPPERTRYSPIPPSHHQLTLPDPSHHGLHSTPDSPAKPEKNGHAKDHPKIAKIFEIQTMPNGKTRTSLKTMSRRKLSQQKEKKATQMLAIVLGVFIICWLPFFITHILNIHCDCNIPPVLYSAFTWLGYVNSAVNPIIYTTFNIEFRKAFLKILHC
Experimental: as §1

MT2 (ML1B) (h) = molecular target: T18, MT2 (ML1B) (h) (Homo sapiens, UniProt P49286); experiment: biochemical; design: CEREP panel radioligand binding displacement, % inhibition of control specific binding by 10 uM 2BAct; settings: Type=Agonist radioligand; read-out: % inhibition of Control specific binding
T18 construct: gene MTNR1B
Experimental: as §1

b1 (h) = molecular target: T19, b1 (h) (Homo sapiens, UniProt P08588); experiment: biochemical; design: CEREP panel radioligand binding displacement, % inhibition of control specific binding by 10 uM 2BAct; settings: Type=Agonist radioligand; read-out: % inhibition of Control specific binding
T19 construct: gene ADRB1
Experimental: as §1

GABA-A1 (h) (a1, b2, g2) = molecular target: T20, GABA-A1 (h) (a1, b2, g2) (Homo sapiens, UniProt P14867+P18507+P47870); experiment: biochemical; design: CEREP panel radioligand binding displacement, % inhibition of control specific binding by 10 uM 2BAct; settings: Type=Agonist radioligand; read-out: % inhibition of Control specific binding
T20 construct: gene GABRA1; a1, b2, g2
Experimental: as §1

## O=C(COc1ccc(Cl)c(F)c1)NC12CC(NC(=O)c3cnc(C(F)F)cn3)(C1)C2 [2BAct]
eIF2B
  EC50: 7.3 nM
CGRP (h)
  inhibition at 10 µM: -4.8%
5-HT3 (h)
  inhibition at 10 µM: 9.2%
[1]
  inhibition at 10 µM: 61%
5-HT7 (h)
  inhibition at 10 µM: 3.9%
5-HT1B
  inhibition at 10 µM: -8.8%
a1B (h)
  inhibition at 10 µM: -14.2%
M (MOP) (h)
  inhibition at 10 µM: 3%
A3 (h)
  inhibition at 10 µM: 20.6%
ET-A (h)
  inhibition at 10 µM: -5.3%
5-HT transporter (h)
  inhibition at 10 µM: 7.9%
M4 (h)
  inhibition at 10 µM: 11%
M5 (h)
  inhibition at 10 µM: 11.8%
Y1 (h)
  inhibition at 10 µM: -17.4%
CCK1(CCKA) (h)
  inhibition at 10 µM: 5.2%
5-HT2A (h)
  inhibition at 10 µM: 10.8%
D2S (h)
  inhibition at 10 µM: 1.3%
MT2 (ML1B) (h)
  inhibition at 10 µM: -2%
b1 (h)
  inhibition at 10 µM: 7.8%
GABA-A1 (h) (a1, b2, g2)
  inhibition at 10 µM: -19.5%

— publication PMC6326728, “eIF2B activator prevents neurological defects caused by a chronic integrated stress response” (eLife, 2019)
